# Measured values: US10696615B2, “Prenylated hydroxystilbenes” (The University of Sydney, priority 2011, dated 2020)
# How the values were obtained:
# [1] = test system: UACC-257; assay: NCI in vitro cancer screen, Melanoma; type: cell-based, human; details: UACC-257
# [2] = test system: MDA-MB-231 (MDA-MB-231/ATCC); assay: NCI in vitro cancer screen, Breast Cancer; type: cell-based, human; details: MDA-MB-231
# [3] = test system: HOP-92; assay: NCI in vitro cancer screen, Non-Small Cell Lung Cancer; type: cell-based, human; details: HOP-92
# [4] = test system: CAKI-1; assay: NCI in vitro cancer screen, Renal Cancer; type: cell-based, human; details: CAKI-1
# [5] = test system: NCI-H322M; assay: NCI in vitro cancer screen, Non-Small Cell Lung Cancer; type: cell-based, human
# [6] = test system: UO-31; assay: NCI in vitro cancer screen, Renal Cancer; type: cell-based, human; details: UO-31
# [7] = test system: MOLT-4; assay: NCI in vitro cancer screen, Leukemia; type: cell-based, human; details: MOLT-4
# [8] = test system: MALME-3M; assay: NCI in vitro cancer screen, Melanoma; type: cell-based, human
# [9] = test system: SNB-75; assay: NCI in vitro cancer screen, CNS Cancer; type: cell-based, human; details: SNB-75
# [10] = test system: OVCAR-5; assay: NCI in vitro cancer screen, Ovarian Cancer; type: cell-based, human; details: OVCAR-5
# [11] = test system: SW-620; assay: NCI in vitro cancer screen, Colon Cancer; type: cell-based, human; details: SW-620
# [12] = test system: NCI-H522; assay: NCI in vitro cancer screen, Non-Small Cell Lung Cancer; type: cell-based, human; details: NCI-H522
# [13] = test system: KM12; assay: NCI in vitro cancer screen, Colon Cancer; type: cell-based, human; details: KM12
# [14] = test system: K-562; assay: NCI in vitro cancer screen, Leukemia; type: cell-based, human; details: K-562
# [15] = test system: A549/ATCC; assay: NCI in vitro cancer screen, Non-Small Cell Lung Cancer; type: cell-based, human
# [16] = test system: SF-295; assay: NCI in vitro cancer screen, CNS Cancer; type: cell-based, human; details: SF-295
# [17] = test system: OVCAR-4; assay: NCI in vitro cancer screen, Ovarian Cancer; type: cell-based, human; details: OVCAR-4
# [18] = test system: DU-145; assay: NCI in vitro cancer screen, Prostate Cancer; type: cell-based, human; details: DU-145
# [19] = test system: NCI-H226; assay: NCI in vitro cancer screen, Non-Small Cell Lung Cancer; type: cell-based, human; details: NCI-H226
# [20] = test system: OVCAR-3; assay: NCI in vitro cancer screen, Ovarian Cancer; type: cell-based, human; details: OVCAR-3
# [21] = test system: HT29; assay: NCI in vitro cancer screen, Colon Cancer; type: cell-based, human; details: HT29
# [22] = test system: SNB-19; assay: NCI in vitro cancer screen, CNS Cancer; type: cell-based, human; details: SNB-19
# [23] = test system: COLO 205; assay: NCI in vitro cancer screen, Colon Cancer; type: cell-based, human; details: COLO 205
# [24] = test system: HCT-116; assay: NCI in vitro cancer screen, Colon Cancer; type: cell-based, human; details: HCT-116
# [25] = test system: ACHN; assay: NCI in vitro cancer screen, Renal Cancer; type: cell-based, human
# [26] = test system: MCF7; assay: NCI in vitro cancer screen, Breast Cancer; type: cell-based, human; details: MCF7
# [27] = test system: ADR-RES (NCI/ADR-RES); assay: NCI in vitro cancer screen, Ovarian Cancer; type: cell-based, human
# [28] = test system: IGROV1; assay: NCI in vitro cancer screen, Ovarian Cancer; type: cell-based, human; details: IGROV1
# [29] = test system: SF-539; assay: NCI in vitro cancer screen, CNS Cancer; type: cell-based; details: SF-539
# [30] = test system: HL-60 (TB); assay: NCI in vitro cancer screen, Leukemia; type: cell-based, human; details: HL-60 (TB)
# [31] = test system: U251; assay: NCI in vitro cancer screen, CNS Cancer; type: cell-based, human; details: U251
# [32] = Homo sapiens, read-out: LC50 (the source's name)
structure (smiles),measurement,setting,value
"COc1cc(/C=C/c2cc(O)c(CC=C(C)C)c(O)c2)ccc1O [USYDS13, (E)-4-(3-methyl-2-buten-1-yl)-3,4′,5-trihydroxy-3′-methoxystilbene]",GI50,[1]; Homo sapiens,5.35 µM
same,CC50,[1]; [32],44 µM
same,TGI,[1],18.1 µM
same,GI50,[2]; Homo sapiens,1.63 µM
same,CC50,[2]; [32],> 100 µM
same,TGI,[2],7.82 µM
same,TGI,[3],30.5 µM
same,GI50,[3]; Homo sapiens,5.96 µM
same,CC50,[3]; [32],> 100 µM
same,TGI,[4],>100 µM
same,GI50,[4]; Homo sapiens,5.9 µM
same,CC50,[4]; [32],> 100 µM
same,TGI,[5],28.5 µM
same,GI50,[5]; Homo sapiens,5.9 µM
same,LC50 (50% lethal concentration),[5]; Homo sapiens,> 100 µM
same,GI50,[6]; Homo sapiens,4.16 µM
same,CC50,[6]; [32],> 100 µM
same,TGI,[6],38.1 µM
same,GI50,[7]; Homo sapiens,2.95 µM
same,CC50,[7]; [32],> 100 µM
same,TGI,[7],13.7 µM
same,GI50,"[8]; Homo sapiens, Malme-3M",5.53 µM
same,CC50,"[8]; Homo sapiens, Malme-3M, read-out: LC50 (the source's name)",> 100 µM
same,TGI,[8]; MALME-3M,32.1 µM
same,GI50,[9]; Homo sapiens,5.47 µM
same,CC50,[9]; [32],> 100 µM
same,TGI,[9],36.6 µM
same,GI50,[10]; Homo sapiens,13.9 µM
same,CC50,[10]; [32],> 100 µM
same,TGI,[10],79.3 µM
same,GI50,[11]; Homo sapiens,3.98 µM
same,CC50,[11]; [32],42.8 µM
same,TGI,[11],15.9 µM
same,GI50,[12]; Homo sapiens,2.13 µM
same,CC50,[12]; [32],25.6 µM
same,TGI,[12],59.8 µM
same,GI50,[13]; Homo sapiens,3.15 µM
same,CC50,[13]; [32],49 µM
same,TGI,[13],16.1 µM
same,GI50,"[14]; Homo sapiens, K562",4.08 µM
same,CC50,"[14]; Homo sapiens, K562, read-out: LC50 (the source's name)",> 100 µM
same,TGI,[14],57.5 µM
same,TGI,[15],20.4 µM
same,GI50,[15]; Homo sapiens,4.01 µM
same,CC50,[15]; [32],> 100 µM
same,GI50,[16]; Homo sapiens,5.22 µM
same,CC50,[16]; [32],77.5 µM
same,TGI,[16],23.5 µM
same,GI50,[17]; Homo sapiens,9.68 µM
same,CC50,[17]; [32],> 100 µM
same,TGI,[17],74.8 µM
same,TGI,[18],31.6 µM
same,GI50,[18]; Homo sapiens,6.82 µM
same,CC50,[18]; [32],> 100 µM
same,GI50,[19]; Homo sapiens,10.9 µM
same,LC50 (50% lethal concentration),[19]; Homo sapiens,> 100 µM
same,TGI,[19],50.1 µM
same,GI50,[20]; Homo sapiens,7.98 µM
same,CC50,[20]; [32],> 100 µM
same,TGI,[20],39.8 µM
same,TGI,[21],36.9 µM
same,GI50,"[21]; Homo sapiens, HT-29",17.8 µM
same,CC50,"[21]; Homo sapiens, HT-29, read-out: LC50 (the source's name)",76.8 µM
same,GI50,[22]; Homo sapiens,8.02 µM
same,CC50,[22]; [32],64.5 µM
same,TGI,[22],24.2 µM
same,TGI,[23],28.9 µM
same,GI50,[23]; Homo sapiens,15.6 µM
same,CC50,[23]; [32],53.8 µM
same,TGI,[24],15.6 µM
same,GI50,[24]; Homo sapiens,4.33 µM
same,LC50 (concentration killing 50% of cells),[24]; Homo sapiens,45.6 µM
same,TGI,[25],>100 µM
same,GI50,[25]; Homo sapiens,5.11 µM
same,CC50,[25]; [32],> 100 µM
same,GI50,[26]; Homo sapiens,0.68 µM
same,CC50,[26]; [32],82.7 µM
same,TGI,[26],19.9 µM
same,TGI,[27]; ADR-RES,>100 µM
same,GI50,"[27]; Homo sapiens, NCI/ADR-RES",4.41 µM
same,CC50,"[27]; Homo sapiens, NCI/ADR-RES, read-out: LC50 (the source's name)",> 100 µM
same,GI50,"[28]; Homo sapiens, IGROV-1",6.7 µM
same,CC50,"[28]; Homo sapiens, IGROV-1, read-out: LC50 (the source's name)",> 100 µM
same,TGI,[28],86.2 µM
same,GI50,[29]; Homo sapiens,7.32 µM
same,CC50,[29]; [32],> 100 µM
same,TGI,[29],29.9 µM
same,TGI,[30],17.1 µM
same,GI50,[30]; Homo sapiens,2.55 µM
same,CC50,[30]; [32],> 100 µM
same,GI50,"[31]; Homo sapiens, U-251",5.47 µM
same,CC50,"[31]; Homo sapiens, U-251, read-out: LC50 (the source's name)",57.6 µM
same,TGI,[31],20.7 µM
